Experimental data: patent US20230416329A1, “A PEPTIDE WITH DISULFIDE BONDS AND INHIBITORY ACTIVITY AGAINST SERINE PROTEASES, DERIVED HYBRID PEPTIDES THEREOF, AND USES THEREOF” (INSTITUTE OF MATERIA MEDICA , CHINESE ACADEMY OF MEDICAL …, priority 2020, published 2023)

Legend:
chymotrypsin = chymotrypsin (Bos taurus, UniProt P00766); assay: in vitro; conditions: for remaining at 0.025 h, 60 μM / remaining at 0.05 h, 60 μM / remaining at 0.075 h, 60 μM / remaining at 0.1 h, 60 μM / remaining at 0.15 h, 60 μM / remaining at 0.25 h, 60 μM / remaining at 0.5 h, 60 μM / remaining at 1 h, 60 μM: isolated enzyme chymotrypsin, pH 7.8, Remaining peak area (%)/chymotrypsin
Summary of the method: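 RP-HPLC peak area tracked intact peptide after 37 °C digestion with chymotrypsin (0.05 μg/μL solution, 5 min preincubation). Samples were withdrawn at 1.5-60.0 min and stopped with 10% TFA.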

DPP-IV = DPP-IV (Homo sapiens, UniProt P27487); assay: Tolerance of GLP-1 and its analogues to DPP-IV (RP-HPLC remaining peak area); type: in vitro ADME; conditions: peptide 25 μM, DPP-IV 0.5 ng/μL, 37° C.; for Remaining peak area (%)/DPP-IV: 0.0 h; for remaining at 0.5 h, 25 μM / remaining at 2 h, 25 μM / remaining at 4 h, 25 μM / remaining at 8 h, 25 μM / remaining at 12 h, 25 μM: isolated DPP-IV enzyme in buffer, pH 8
DPP-IV, sequence (P27487 whole entry, species assumed): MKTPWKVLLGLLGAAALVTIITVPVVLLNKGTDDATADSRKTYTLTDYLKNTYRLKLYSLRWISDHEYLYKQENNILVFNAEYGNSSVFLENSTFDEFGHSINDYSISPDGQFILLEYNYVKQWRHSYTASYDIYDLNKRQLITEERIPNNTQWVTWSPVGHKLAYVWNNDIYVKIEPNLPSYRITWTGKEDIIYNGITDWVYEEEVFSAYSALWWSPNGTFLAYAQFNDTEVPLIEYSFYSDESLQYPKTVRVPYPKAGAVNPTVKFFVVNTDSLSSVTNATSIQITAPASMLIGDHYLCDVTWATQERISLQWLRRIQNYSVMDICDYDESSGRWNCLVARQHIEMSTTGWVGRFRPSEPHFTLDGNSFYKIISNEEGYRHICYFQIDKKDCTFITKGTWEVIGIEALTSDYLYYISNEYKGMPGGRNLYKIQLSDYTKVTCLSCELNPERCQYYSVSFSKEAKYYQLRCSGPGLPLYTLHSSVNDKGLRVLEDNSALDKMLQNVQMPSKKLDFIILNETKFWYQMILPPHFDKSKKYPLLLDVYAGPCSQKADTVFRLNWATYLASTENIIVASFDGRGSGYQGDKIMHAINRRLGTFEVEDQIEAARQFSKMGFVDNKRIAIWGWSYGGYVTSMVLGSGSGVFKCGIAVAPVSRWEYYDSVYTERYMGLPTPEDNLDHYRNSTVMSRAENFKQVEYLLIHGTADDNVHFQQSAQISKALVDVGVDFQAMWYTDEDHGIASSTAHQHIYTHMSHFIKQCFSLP
Description: Mix by centrifugation at 8000 rpm for 30 seconds.
(2) Arrange a certain volume of 0.005 μg/μL DPP-IV solution in another sterile EP.

[1] = Stability of GLP-1 and its analogues in human serum; conditions: 25% (v/v) human serum; for Remaining peak area (%)/human serum: 0.0 h, peptide 0.03 mM, 37° C.; for remaining at 0.5 h, 0.03 mM / remaining at 2 h, 0.03 mM / remaining at 4 h, 0.03 mM / remaining at 8 h, 0.03 mM / remaining at 12 h, 0.03 mM: human, pH 7
Description: The amount of the prototype peptide at 0 h was taken as 100%. At different time point, 100 μL aliquots was taken out, and 300 μL precooled anhydrous methanol was added to terminate the reaction. The remaining percentage (%) of the peptide relative to the prototype peptide at that time point was analyzed by reverse phase high performance liquid chromatography. The experiment was performed with three replicates, and data were expressed as “mean±standard deviation”. The sample was subjected to high-speed centrifugation, supernatant extraction, and freeze drying, followed by dissolution in 50% (v/v) methanol/water solution, and analyzed by reverse phase high performance liquid chromatography. The experiment was performed with three replicates, and data were expressed as “mean±standard deviation”.
Invert and mix thoroughly, then leave at −20° C. overnight. At the same time, take three sterile EP tubes and add 25 μL of human serum, 75 μL of 50 mM Tris-HCl buffer (pH7.0), and 300 μL of pre-cold absolute methanol. Invert and mix thoroughly, then leave at −20° C. overnight as a negative control, so as to eliminate the interference of proteins or peptides contained in human serum at the peak time of the target peptide after methanol precipitation.
Arrange a certain volume of human serum in another sterile EP. Incubate the EP tubes containing peptides and serum at 37° C. for 10 min, and add 137.5 μL of human serum to each EP tube containing peptides and mix well. […] Start timing and remove 100 μL of reaction solution at 0.5, 2.0, 4.0, 8.0, and 12.0 h later, respectively. Add 300 μL of pre-cold absolute methanol. Invert and mix thoroughly, then leave at −20° C. overnight. […] There are three replicates at each time point, and the peak area of the peptide at each time point is detected using reverse phase high-performance liquid chromatography (RP-HPLC). The ratio of the remaining peak area of the sample at detection time T (h) to the peak area of the prototype peptide at 0 h is calculated as the remaining percentage (%) of the peptide.

| Structure (SMILES) | remaining at 0.025 h, 60 μM (chymotrypsin) [%] | remaining at 0.05 h, 60 μM (chymotrypsin) [%] | remaining at 0.075 h, 60 μM (chymotrypsin) [%] | remaining at 0.1 h, 60 μM (chymotrypsin) [%] | remaining at 0.15 h, 60 μM (chymotrypsin) [%] | remaining at 0.25 h, 60 μM (chymotrypsin) [%] | remaining at 0.5 h, 60 μM (chymotrypsin) [%] | remaining at 1 h, 60 μM (chymotrypsin) [%] | Remaining peak area (%)/DPP-IV (DPP-IV) [%] | remaining at 0.5 h, 25 μM (DPP-IV) [%] | remaining at 2 h, 25 μM (DPP-IV) [%] | remaining at 4 h, 25 μM (DPP-IV) [%] | remaining at 8 h, 25 μM (DPP-IV) [%] | remaining at 12 h, 25 μM (DPP-IV) [%] | Remaining peak area (%)/human serum [1] [%] | remaining at 0.5 h, 0.03 mM [1] [%] | remaining at 2 h, 0.03 mM [1] [%] | remaining at 4 h, 0.03 mM [1] [%] | remaining at 8 h, 0.03 mM [1] [%] | remaining at 12 h, 0.03 mM [1] [%] | also measured |
| --- | --- | --- | --- | --- | --- | --- | --- | --- | --- | --- | --- | --- | --- | --- | --- | --- | --- | --- | --- | --- | --- |
| CC[C@H](C)[C@H](NC(=O)[C@H](Cc1ccccc1)NC(=O)[C@H](CCC(=O)O)NC(=O)[C@H](CCCCN)NC(=O)[C@H](C)NC(=O)[C@H](C)NC(=O)[C@H](CCC(N)=O)NC(=O)CNC(=O)[C@H](CCC(=O)O)NC(=O)[C@H](CC(C)C)NC(=O)[C@H](Cc1ccc(O)cc1)NC(=O)[C@H](CO)NC(=O)[C@H](CO)NC(=O)[C@@H](NC(=O)[C@H](CC(=O)O)NC(=O)[C@H](CO)NC(=O)[C@@H](NC(=O)[C@H](Cc1ccccc1)NC(=O)[C@@H](NC(=O)CNC(=O)[C@H](CCC(=O)O)NC(=O)[C@H](C)NC(=O)[C@H](Cc1c[nH]cn1)NC(=O)CNC(=O)CNC(=O)[C@@H](NC(=O)[C@@H]1CCCN1C(=O)[C@@H](NC(=O)CNC(=O)CNC(=O)[C@H](Cc1ccc(O)cc1)NC(=O)[C@@H]1CSSC[C@H](NC(=O)[C@@H](N)Cc2ccccc2)C(=O)N[C@@H]([C@@H](C)O)C(=O)N[C@@H](Cc2ccc(O)cc2)C(=O)N[C@@H](CO)C(=O)N[C@@H]([C@@H](C)CC)C(=O)N2CCC[C@H]2C(=O)N2CCC[C@H]2C(=O)N[C@@H](CCC(N)=O)C(=O)N1)[C@@H](C)CC)[C@@H](C)CC)[C@@H](C)O)[C@@H](C)O)C(C)C)C(=O)N[C@@H](C)C(=O)N[C@@H](Cc1c[nH]c2ccccc12)C(=O)N[C@@H](CC(C)C)C(=O)N[C@H](C(=O)N[C@@H](CCCCN)C(=O)NCC(=O)N[C@@H](CCCNC(=N)N)C(=O)NCC(=O)NCC(=O)N[C@@H](CCCCN)C(=O)O)C(C)C [CH10-D-GLP-1] | 59.7 ± 2.1 | 59.1 ± 4.5 | 54.5 ± 1.2 | 57.3 ± 1.5 | 56.3 ± 4.7 | 54 ± 4.7 | 57.4 ± 4 | 59.4 ± 2.1 | 100.0 ± 0.0 | 91.2 ± 3.2 | 94.1 ± 2.3 | 86.8 ± 0.8 | 84.1 ± 6.7 | 81.8 ± 0.6 | 100.0 ± 0.0 | 74.4 ± 5.5 | 54.8 ± 2.1 | 26.2 ± 2.9 | 7.3 ± 1 | 0.8 |  |
| CC[C@H](C)[C@H](NC(=O)[C@H](Cc1ccccc1)NC(=O)[C@H](CCC(=O)O)NC(=O)[C@H](CCCCN)NC(=O)[C@H](C)NC(=O)[C@H](C)NC(=O)[C@H](CCC(N)=O)NC(=O)CNC(=O)[C@H](CCC(=O)O)NC(=O)[C@H](CC(C)C)NC(=O)[C@H](Cc1ccc(O)cc1)NC(=O)[C@H](CO)NC(=O)[C@H](CO)NC(=O)[C@@H](NC(=O)[C@H](CC(=O)O)NC(=O)[C@H](CO)NC(=O)[C@@H](NC(=O)[C@H](Cc1ccccc1)NC(=O)[C@@H](NC(=O)CNC(=O)[C@H](CCC(=O)O)NC(=O)[C@H](C)NC(=O)[C@H](Cc1c[nH]cn1)NC(=O)CNC(=O)CNC(=O)[C@@H](NC(=O)[C@@H]1CCCN1C(=O)[C@@H](NC(=O)CN)[C@@H](C)CC)[C@@H](C)CC)[C@@H](C)O)[C@@H](C)O)C(C)C)C(=O)N[C@@H](C)C(=O)N[C@@H](Cc1c[nH]c2ccccc12)C(=O)N[C@@H](CC(C)C)C(=O)N[C@H](C(=O)N[C@@H](CCCCN)C(=O)NCC(=O)N[C@@H](CCCNC(=N)N)C(=O)NCC(=O)NCC(=O)N[C@@H](CCCCN)C(=O)NCC(=O)N[C@@H](CO)C(=O)N[C@H]1CSSC[C@@H](C(=O)N[C@@H](Cc2ccc(O)cc2)C(=O)NCC(=O)O)NC(=O)[C@H](CCC(N)=O)NC(=O)[C@@H]2CCCN2C(=O)[C@@H]2CCCN2C(=O)[C@H]([C@@H](C)CC)NC(=O)[C@H](CO)NC(=O)[C@H](Cc2ccc(O)cc2)NC(=O)[C@H]([C@@H](C)O)NC1=O)C(C)C [D-GLP-1-CH4] | 80.9 ± 1.7 | 78 ± 2.9 | 83.2 ± 0.3 | 83.9 ± 3 | 82.4 ± 3.9 | 78.5 ± 2.1 | 81.3 ± 2.8 | 76.3 ± 2.7 | 100.0 ± 0.0 | 81.6 ± 1.9 | 76.4 ± 4.2 | 80.8 ± 1.4 | 75.1 ± 2.4 | 71 ± 3 | 100.0 ± 0.0 | 106 ± 15.8 | 97.6 ± 5.4 | 83 ± 3.1 | 64 ± 6.8 | 58.2 ± 10 |  |
| CC[C@H](C)[C@H](NC(=O)[C@H](Cc1ccccc1)NC(=O)[C@H](CCC(=O)O)NC(=O)[C@H](CCCCN)NC(=O)[C@H](C)NC(=O)[C@H](C)NC(=O)[C@H](CCC(N)=O)NC(=O)CNC(=O)[C@H](CCC(=O)O)NC(=O)[C@H](CC(C)C)NC(=O)[C@H](Cc1ccc(O)cc1)NC(=O)[C@H](CO)NC(=O)[C@H](CO)NC(=O)[C@@H](NC(=O)[C@H](CC(=O)O)NC(=O)[C@H](CO)NC(=O)[C@@H](NC(=O)[C@H](Cc1ccccc1)NC(=O)[C@@H](NC(=O)CNC(=O)[C@H](CCC(=O)O)NC(=O)[C@H](C)NC(=O)[C@H](Cc1c[nH]cn1)NC(=O)CNC(=O)CNC(=O)[C@@H](NC(=O)[C@@H]1CCCN1C(=O)[C@@H](NC(=O)CN)[C@@H](C)CC)[C@@H](C)CC)[C@@H](C)O)[C@@H](C)O)C(C)C)C(=O)N[C@@H](C)C(=O)N[C@@H](Cc1c[nH]c2ccccc12)C(=O)N[C@@H](CC(C)C)C(=O)N[C@H](C(=O)N[C@@H](CCCCN)C(=O)NCC(=O)N[C@@H](CCCNC(=N)N)C(=O)NCC(=O)NCC(=O)N[C@@H](CCCCN)C(=O)NCC(=O)N[C@@H](Cc1ccccc1)C(=O)N[C@H]1CSSC[C@@H](C(=O)N[C@@H](Cc2ccc(O)cc2)C(=O)NCC(=O)O)NC(=O)[C@H](CCC(N)=O)NC(=O)[C@@H]2CCCN2C(=O)[C@@H]2CCCN2C(=O)[C@H]([C@@H](C)CC)NC(=O)[C@H](CO)NC(=O)[C@H](Cc2ccc(O)cc2)NC(=O)[C@H]([C@@H](C)O)NC1=O)C(C)C [D-GLP-1-CH10] | 33.4 ± 1.7 | 32.6 ± 0.7 | 28.9 ± 1.1 | 31.9 ± 2.9 | 31.3 ± 0.8 | 30.9 ± 1 | 32.6 ± 0.6 | 36.2 ± 1.4 | 100.0 ± 0.0 | 64.9 ± 3.7 | 66.2 ± 1 | 69.3 ± 3.3 | 70.8 ± 0.4 | 74.4 ± 0.3 | 100.0 ± 0.0 | 98.4 ± 7.3 | 94.6 ± 2.1 | 101 ± 5.5 | 91.6 ± 6.8 | 43.7 ± 2.1 | stability towards chymotrypsin hydrolysis (in words) (chymotrypsin): lower residual amount; serum stability (in words) [1]: more stable in serum |
